Reference: patent US20180228897A1, “Compositions for Vapor Phase Delivery of Active Compounds, Methods of Making and Using Same, and Kits Comprising Same” (Atmovita, LLC, priority 2015, published 2018)
Like-named read-outs stand apart in the source and are kept apart here. Peptide text beside a SMILES is read from it. * marks the point of attachment. PhAc = O=C(Cc1ccccc1)*

How the values were obtained:
Type in all cases: physicochemical
[1] = Increase in solubility of active compounds in the present compositions
Description: It is advantageous to take measures to increase the solubility of an active compound or active compounds within a composition that includes components that serve as excipients such that true solubilization of the compound(s) occurs and the activity of the active compounds are retained upon transition to the vapor phase. The present disclosure is based on the result that the solubility of active compounds can be increased by surprising and unexpected amounts.

[2] = Preparation of compositions (Example 3): appearance and stability of the solution
[3] = Trans resveratrol solubility in stock with solvents and co-solutes (incremental addition, heat gun)
Experimental: The initial approach was to test non polar solvents and their effectiveness with ethanol. This included pure stock as a control, carvone, and combinations of those solvents with ethanol. The following solvents were prepared: Control—3.5 ml of pure stock, 1-1.75 ml of stock+1.75 ml of carvone+0.2 ml of 0.01 mol NaOH, 2-3.5 ml of pure carvone, 3-3 ml of stock+0.5 ml of ethanol, 4-3 ml of carvone+0.5 ml of ethanol.
Solution 1 became biphasic and cloudy. The control and solution 4 have approximately the same solubility of TR. […] Solvent was added until the TR was dissolved which occurred at 60 mg/ml of stock. This original solution was split into 5 test tubes of 1 ml each with about 0.06 g of TR.
The following solutions were made: 1—adding […] of carvone (equimolar with TR, 0.000263 mol of each) 2—adding 0.175 ml of ethanol 3-0.235 ml of carvone and 0.1 ml of ethanol. Solution 1 became cloudy because the carvone is immiscible with the stock. Several attempts to fix this were made using of ethanol and B3 amide as hydrotropes but it had no effect.
Next co-solutes were used along with the TR in stock solution. 0.000263 mol of the following were dissolved along with TR in 3 ml stock: 1-niacin, 2-caffeine, 3-gallic acid, 4-salicylic acid, 5-thiamine, 6-niacinamide, and 7-pantothenic acid. Two additional samples were prepared of 0.01 g biotin (8) and 0.04 g of -pyridoxine HCl (9). Each solution consisted of the stated amount of co-solute and 3 ml of stock. The following amounts of TR (which was added incrementally (30-40 mg) and heated for 3-4 minutes by heat gun) created the following:
To conduct further testing 0.5 ml of ethanol was added to the solutions with niacin, biotin, thiamine, and salicylic acid. The successful B3 amide solution was split into two solutions of (1.625 and 1.375 ml) with 0.25 ml of ethanol being added to the 1.375 ml solution. The results were as follows:
There was also testing with multiple solutes in 3 ml of stock:
Currently piperazine hexahydrate is being tested as it is another hydrotrope. […] It may work better with other co-solutes or ethanol.

[4] = Folate solubility in glycerin/2,3 butane diol stock compositions with co-solutes (incremental addition, heat gun, stirring); settings: organic solvent or mixture, thermodynamic from solid; stock/water/ethanol solvent
Experimental: Folate. Folate and biotin are the two most difficult to dissolve B vitamins. Folate solubility enhancement was provided by addition of beta-cyclodextrin.
The solubility enhancement from mannitol/biotin alone was tested next. […] This is major improvement over most polar solvents (0.0016 g/L of water at 25° C.).
First the mannitol/biotin powder was mixed with 0.004 g of folate. This was added to the test tube followed by the liquid. It was stirred vigorously. Then it was heated with a heat gun until clear and no folate was suspended. […] All the liquid was moved to another test tube and the precipitate remained. Then folate was incrementally added (about 1 mg) and the solution was stirred, followed by heating** until it became clear. It would take at least 3 minutes of heating for it to become clear but as more folate was added, at least 4 minutes of heating were needed. This is how the original solution was formed. Over the course of several days there was no further precipitate or increase in viscosity. ** all heating was done with the yellow heat gun on the lowest setting (240° F.)
While heating and stirring the lid popped off and 0.75 ml of solution spilled out. Even accounting for folate lost in the spill, currently at least 8 mg of folate have been dissolved in 2.75 ml and the solution is completely clear. Heating the solution caused the lid to pop so it must be removed after about 1 minute and 30 seconds of heating prior to any further heating. It is also crucial for the solution to have been flipped upside down, preferably while warm. The solution must not be heated while flipped as this may cause a spill.
The original solution still has less much viscosity but also a slightly lower concentration of folate. It appears that somewhere beyond 8 mg folate/[…] of solution it becomes supersaturated, resulting in a thick gel upon settling and cooling. […] As long as supersaturation followed by settling is avoided, the solution will remain liquid. Another option is to study the effect of precipitation inhibitors or the sonicator to further boost solubility without increasing viscosity.
Testing was also done with only stock, stock+water and stock+ethanol but having both water and ethanol is crucial to the process. […] Despite having separated the liquid from the precipitate which was nearly all biotin/mannitol, the powder still played a role in improving folate solubility. […] The following composition (3 ml stock+0.25 ml water+0.25 ml ethanol+0.009 g of biotin) dissolved 11.2 mg of folate but became extremely viscous.
According to research on drug solubility there is a class of molecules known as hydrotropes (also known as chaotropes, […]). They reduce hydrophobic forces between non-polar solutes in polar solvents. One such molecule is niacinamide (vitamin B3 amide). These hydrotropes are planar and are either very polar or have nonpolar and polar sides like surfactants but shorter. This experiment was repeated with niacinamide as a cosolute and with a combination of B3 amide and Biotin. The biotin and B3 amide were added along with 4 mg of folate (and crushed together) wet into dry to the solution. The remaining folate was added incrementally along with heating and stirring. […] (2.5 ml stock+0.5 ml water+0.5 ml ethanol+0.0221 g of B3 amide) dissolved approximately 11 mg of folate and a small amount of precipitate. (2.5 ml stock+0.5 ml water+0.5 ml ethanol+0.0221 g of B3 amide+0.090 g pure biotin) dissolved approximately 11.4 mg of folate without precipitate. Unfortunately both solutions were extremely viscous after a few days.
Eventually the B3 amide and biotin cosolute solution was prepared using “reverse stock” instead of regular with the goal of lowering viscosity. The reverse stock is a solution of 3:7 mol glycerin and 2,3 butane diol. Initially this made folate precipitate so additional glycerin was added to achieve a 1:1 mol ratio of glycerin to 2,3 butane diol.

[5] = 0.693 g L-arginine and 0.693 g l-theanine in 0.75 ml stock, 2.5 ml water, 0.25 ml flavored glycerin

For cyanocobalamin [B12], the increase in solubility [1] was 600% and the “concentration of final translucent solution” value ([2]; water, 70% glycerin/30% 2,3 butane diol (v/v), 0.01M NaOH, 95% EtOH, room temperature) was roughly 0.21 M.

With CC(C)(CO)[C@@H](O)C(=O)NCCC(=O)O [Pantothenic Acid] the appearance of composition ([2]; 0.2 g vitamin B5 in 1.5 ml stock, 2.0 ml fruit flavored vodka, 0.1 ml flavored glycerin) was “clear and flavored solution”.

For Cc1cc2nc3c(=O)[nH]c(=O)nc-3n(C[C@H](O)[C@H](O)[C@H](O)CO)c2cc1C [riboflavin], the appearance of composition ([2]; 18 mg riboflavin, 9.26 mg l-arginine in 1.5 ml stock and 2.0 ml of 0.1 mol Na2CO3) was “clear solution”.

For C=C1CC[C@H](O)C/C1=C/C=C1\CCC[C@]2(C)[C@@H]([C@H](C)CCCC(C)C)CC[C@@H]12 [Vitamin D3], the increase in solubility ([1]; in the present compositions, D3 with ß-propoxy cyclodextrin) was 22,000% and the appearance of composition ([2]; 5 mg Vitamin D3, 15 mg βcyclodextrin, 15 mg cinnamic acid, 15 mg ethyl vanillin in 2.5 ml stock+1.0 ml water, heated at 175° C.) was “clear solution with flavor”.

For Oc1ccc(/C=C/c2cc(O)cc(O)c2)cc1 [TR, Trans-resveratrol], the “amount of TR added” value ([3]; 0.000263 mol piperazine.6H2O in 1 ml stock) was 0.0731 g, the “appearance of solution after a few days” value ([3]; 0.000263 mol piperazine.6H2O in 1 ml stock, 0.0731 g TR) was “the solution became dark and there was a small amount of precipitate” and the “amount of TR dissolved” value ([3]; 0.0100 g B7+3.5 ml stock+0.5 ml ethanol) was 0.2606 g. The “amount of TR dissolved” value ([3]; 0.0324 g B3+3.5 ml stock+0.5 ml ethanol) was 0.2316 g, the “TR dissolved per ml” value ([3]; 0.048175 B3 amide+1.375+0.25 ml ethanol) was 0.125 g TR/ml and the “TR dissolved per ml” value ([3]; 0.048175 B3 amide+1.625 ml) was 0.125 g TR/ml. The “amount of TR dissolved” value ([3]; 0.0698 g B1+3.5 ml stock+0.5 ml ethanol) was 0.2333 g, the “amount of TR added” value ([3]; 3 ml stock + 0.000263 mol caffeine (2)) was 0.0131 g and the “amount of TR added” value ([3]; 3 ml stock + 0.000263 mol gallic acid (3)) was 0.1784 g. For the same compound, the “amount of TR added” value ([3]; 3 ml stock + 0.000263 mol niacin (1)) was 0.1776 g, the “amount of TR added” value ([3]; 3 ml stock + 0.000263 mol niacinamide (6)) was 0.1738 g and the “amount of TR added” value ([3]; 3 ml stock + 0.000263 mol pantothenic acid (7)) was 0.0131 g. The “amount of TR added” value ([3]; 3 ml stock + 0.000263 mol salicylic acid (4)) was 0.1784 g, the “amount of TR added” value ([3]; 3 ml stock + 0.000263 mol thiamine (5)) was 0.1808 g and the “amount of TR added” value ([3]; 3 ml stock + 0.01 g biotin (8)) was 0.1733 g. The “amount of TR added” value ([3]; 3 ml stock + 0.04 g pyridoxine HCl (9)) was 0.1859 g, the appearance of solution ([3]; 3 ml stock + biotin (8), 0.1733 g TR) was “tiny amount of suspension” and the appearance of solution ([3]; 3 ml stock + caffeine (2), 0.0131 g TR) was “immediately precipitated”. The appearance of solution ([3]; 3 ml stock + gallic acid (3), 0.1784 g TR) was “clearly visible suspension and precipitate on bottom”, the appearance of solution ([3]; 3 ml stock + niacin (1), 0.1776 g TR) was “slight visible suspension of particles” and the appearance of solution ([3]; 3 ml stock + niacinamide (6), 0.1738 g TR) was “totally clear solution with low viscosity”. For the same compound, the appearance of solution ([3]; 3 ml stock + pantothenic acid (7), 0.0131 g TR) was “cloudy solution without precipitate”, the appearance of solution ([3]; 3 ml stock + pyridoxine HCl (9), 0.1859 g TR) was “clearly visible suspension with precipitate” and the appearance of solution ([3]; 3 ml stock + salicylic acid (4), 0.1784 g TR) was “small amount of suspension and precipitate are visible in solution”. For the same compound, the appearance of solution ([3]; 3 ml stock + thiamine (5), 0.1808 g TR) was “small amount of suspension and precipitate are visible in solution”, the “amount of TR dissolved” value ([3]; 3 ml stock, 0.03175 g B3 amide+0.069 g B1+0.006352 g B7, footnote: immediately precipitate) was 0.025 g and the “amount of TR dissolved” value ([3]; 3 ml stock, 0.0482 g B3 amide+0.03 g B1) was 0.1844 g. For the same compound, the “amount of TR dissolved” value ([3]; 3 ml stock, 0.0482 g B3 amide+0.09 g B7, footnote: immediately precipitate) was 0.025 g, the solubility ([3]; glycerin/2,3 butane diol stock (70:30 mol), organic solvent or mixture, thermodynamic from solid, pure stock (70:30 mole glycerin:2,3 butane diol), read-out: solubility in stock) was 60 mg/mL and the solubility ([3]; organic solvent or mixture, thermodynamic from solid, flavored glycerin (with 2,3 butane diol added) instead of regular stock, read-out: solubility) was 45 mg/mL. For the same compound, the solubility ([3]; solution 2: 1 ml TR stock solution + 0.175 ml ethanol) was 60 mg/mL and the “appearance and stability of composition” value ([2]; 0.2 g trans resveratrol, 0.12 g nicotinamide, 0.08 g ethyl vanillin, 0.06 g cinnamic acid in 3.5 ml stock) was “clear and flavored solution that became unstable after two weeks and precipitated”.

In the case of CCOC(=O)CNC(=O)[C@@H]1CCCN1C(=O)Cc1ccccc1 [noopept] (PhAc-Pro-Gly-OEt), the appearance of composition ([2]; 0.335 g noopept, 58 mg cinnamic acid in 2.0 ml stock, 2.0 ml ethanol, 0.1 ml flavored glycerin) is reported as “clear and flavored solution”.

In the case of N=C(N)NCCC[C@H](N)C(=O)O [L-arginine], the appearance of composition [2, 5] is reported as “clear and flavored solution”.

For CCNC(=O)CC[C@H](N)C(=O)O [l-theanine], the appearance of composition [2, 5] was “clear and flavored solution”.

With O=C(O)CCCC[C@@H]1SC[C@@H]2NC(=O)N[C@@H]21 [biotin] the increase in solubility [1] was “comparable increases” and the solubility [4] was roughly 3 mg/mL.
